Data on five molecules can be found in ChEMBL document CHEMBL5046222, “Multifunctional Arylsulfone and Arylsulfonamide-Based Ligands with Prominent Mood-Modulating Activity and Benign Safety Profile, Targeting Neuropsychiatric Symptoms of Dementia” (J Med Chem, 2021).

The target in data set [1] is 5-hydroxytryptamine receptor 6 (Homo sapiens) (UniProt P50406). Particulars: CHO-K1, filed as antagonist, time 1.0 hrs.
Data set [2] is filed under the species Rattus norvegicus. Particulars: in vivo, ip, 10 min.
The species named for data set [3] is Rattus norvegicus. The experiment in a line: animal or person. As to conditions: Wistar, ip, read-out: MED.

Sequence of 5-hydroxytryptamine receptor 6 (Homo sapiens) (P50406 whole entry): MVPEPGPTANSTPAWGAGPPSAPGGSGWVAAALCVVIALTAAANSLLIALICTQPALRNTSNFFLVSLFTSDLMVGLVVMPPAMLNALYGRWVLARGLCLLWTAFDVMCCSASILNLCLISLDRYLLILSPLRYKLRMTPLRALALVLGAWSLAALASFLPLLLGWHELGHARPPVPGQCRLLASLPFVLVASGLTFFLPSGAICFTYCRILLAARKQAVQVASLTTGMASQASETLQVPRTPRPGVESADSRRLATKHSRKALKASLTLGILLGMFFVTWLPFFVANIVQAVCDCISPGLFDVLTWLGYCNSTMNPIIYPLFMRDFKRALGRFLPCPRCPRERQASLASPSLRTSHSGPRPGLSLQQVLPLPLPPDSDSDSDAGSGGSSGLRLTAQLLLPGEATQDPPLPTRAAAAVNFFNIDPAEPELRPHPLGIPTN

`O=S(=O)(c1ccccc1)c1cnc2c(N3CCNCC3)cccc2c1`: the negative-log Kb (pKb) in data set [1] was 9.47.

For the molecule `CN1C(=O)CN=C(c2ccccc2)c2cc(Cl)ccc21` [DIAZEPAM], in data set [2], the MED was found to be 3 mg/kg. On the same count and under the same terms, in the case of `CN(C)CCCN1c2ccccc2CCc2ccccc21` [IMIPRAMINE] it was 10 mg/kg. Regarding `CC(C)COc1ccc(CNC(=O)N(Cc2ccc(F)cc2)C2CCN(C)CC2)cc1` [PIMAVANSERIN], the minimal effective dose in data set [3] was 0.1 mg/kg. Besides, the MED in data set [2] was determined as 0.1 mg/kg. With `O=C1CC2(CCCC2)CC(=O)N1CCCCN1CCN(c2ncccn2)CC1` [BUSPIRONE], the MED in data set [2] was found to be 1 mg/kg.

What is called pKb is the Kb on a negative log10 scale, so that one unit is a factor of ten. A high value points to a low Kb.
